Laboratory results as given in US20260085034A1, “N-(BENZHYDRYL)CYCLOALKYLCARBOXAMIDE DERIVATIVES AS INHIBITORS OF GLYCOGEN SYNTHASE 1 (GYS1) AND METHODS OF USE THEREOF” (Maze Therapeutics, Inc., priority 2022, published 2026).

Tested on: glycogen synthesis in HeLa cells (hGYS1)
Assay: GYS1 cell based assay (glycogen digestion, Glucose-glo)
Details: Homo sapiens, 24 h incubation, 20 mM glucose, geometric mean of at least 2 runs, read-out: Cellular IC50
Source text: The GYS1 cell based assay is a bioluminescent assay that quantifies the glucose resulting from glycogen digestion; the quantified glucose is an indirect measure of GYS1 glycogen synthesis. Newly synthesized glycogen is digested using Glucoamylase; the resulting glucose is quantified by using the Glucose-glo assay kit from Promega. Glucose-glo works by coupling glucose oxidation and NADH production with a bioluminescent system that is activated with NADH. Glucose is oxidized by Glucose dehydrogenase and the reaction reduces NAD+ to NADH; NADH activates Reductase which reduces a pro-luciferin Reductase Substrate to luciferin. Luciferin is detected in a luciferase reaction using Ultra-Glo rLuciferase and ATP, and the luminesce produced is proportional to the glucose in the sample. The luminescence is measured as a single point read in a plate reader.
Compounds that inhibit the hGYS1 enzyme and, subsequently, the glycogen synthesis in cells, were tested using assay ready plates (white, clear bottom 384 well plates) in a final DMSO reaction volume of 1% DMSO. Compounds in the assay ready plates were mixed with media with no additives, except for 20 mM glucose prior to cell addition. HeLa cells were starved in media with no additives, except for 1× Glutamax for 24 h. Starved HeLa cells were plated, in a 1:1 ratio to the media in the assay ready plate and incubated for 24 h at 37° C. and 5% CO2. Cells were washed in 1×PBS buffer and lysed in lysis buffer containing 50% 1×PBS and 25% 0.3 N HCl of the final volume in the well or reaction volume; cells were incubated with lysis buffer for 10 minutes and quenched with the remaining 25% of the reaction volume that consisted of 450 mM Tris pH 8.0. Lysates were mixed in a 1:1 ratio with Glucoamylase in 100 mM Sodium Acetate buffer, pH 5.3; the mixture was incubated for 1 h at 37° C. The digested lysate was mixed in a 1:1 ratio with Glucose-glo detection mixture as per vendor recommendations (Luciferase detection buffer, Reductase, Reductase substrate, Glucose dehydrogenase, and NAD) in read-out plates (solid white 384-well plates) and incubated for 1 h at RT. The plates were read using a plate reader with luminescence capabilities. Each compound concentration Relative Luminescence Unit (RLU) was averaged and normalized to the average RLU of the positive and negative controls to obtain a percentage inhibition. The normalized data vs. concentration was plotted; to determine the half-maximal concentration (IC50), the Levenberg-Marquardt algorithm was used to fit a Hill equation to the dose response data.
The results are shown in Table 4 below, which reports the IC50 of each compound. Unless otherwise specified, IC50 values are reported as the geometric mean of at least 2 assay runs on separate days. As shown in the table below, the compounds of the present invention are potent inhibitors of human GYS1. […] Each run represents the average of a technical replicate, where each compound was assayed twice in the same plate.

SMILES: CC(C)c1ccc([C@@H](NC(=O)[C@H]2C[C@@H]2F)c2ccn[nH]2)cc1F (single isomer, unassigned) [compound 11]
- IC50: 3.28 µM
